According to publication PMC5063977 (The Journal of Biological Chemistry, 2016):

What was measured:
[1] = target: T1, RAMP1-CLR (CGRP receptor) (Homo sapiens, UniProt O60894+Q16602); assay: S. cerevisiae growth assay, GPA1/Gαq chimera, RAMP1 + CLR; format: cell-based; settings: percentage of yeast strain MMY11 (lacking GPA1); 24-h; mean ± S.E., n = 7
T1 construct: FLAG; expressed in transfected cells; host or cells: HEK-293 or HEK-293S cells, transient transfection, 1:1 RAMP:CLR
Procedure: FIGURE 7. […] Reporter gene activity was determined following 24-h stimulation. All data are expressed as percentage of the maximum response observed in yeast strain MMY11 and are means ± S.E. of n individual data sets. D, Bar chart showing the efficacy of each ligand for each RAMP-CLR combination at the Gαq chimera determined via application of the operational model of receptor agonism (Ref. [34] and Table 1). Data were determined as statistically different from the cognate ligand for each receptor (***, p < 0.001; ****, p < 0.0001) using one-way ANOVA with Bonferroni's post-test. E, signaling bias plots were calculated as ΔΔ(τ/Ka) values on a logarithmic scale for each ligand and for each chimera G protein for the three individual RAMP-CLR complexes.
General yeast procedures were performed as described previously ([22], [24]). […] Receptor signaling was measured using the yeast growth assay as described previously ([24]). […] A fluorescein signal was detected as an increase in fluorescence (excitation wavelength = 485 nm, emission wavelength = 535 nm) as a measure of growth. Different concentrations of ligand (0.01 nM–100 μM) were assayed using 96-well plates, and fluorescence was detected using a Tecan Infinite M200 microplate reader (Tecan Ultra Evolution, Reading, UK) or a Mithras LB 940 microplate reader (Berthold Technologies, Harpenden, UK) for 20 h. […]

RAMP3-CLR (AM2 receptor) = target: T2, RAMP3-CLR (AM2 receptor) (Homo sapiens, UniProt O60896+Q16602); assay: cAMP accumulation, HEK-293 cells, RAMP3 + CLR; format: cell-based; settings: mean ± S.E.
T2 construct: FLAG; expressed in transfected cells; host or cells: HEK-293 or HEK-293S cells, transient transfection, 1:1 RAMP:CLR
Procedure: HEK-293 cells were transfected with FuGENE 6 (Roche Applied Science) in accordance with the manufacturer's instructions using a 1:3 (w:v) DNA:FuGENE ratio and a 1:1 ratio of RAMP to CLR. […] The transfected cell lines were grown for 24–48 h prior to assaying.
The transfected HEK-293 cells were washed in PBS, resuspended in stimulation buffer (PBS containing 0.1% BSA and 0.5 mM IBMX), and seeded at 2000 cells/well in 384-well white Optiplates. Ligands were added in the range of 1 pM to 1 mM, and cAMP accumulation was measured after 30 min of stimulation using a LANCE® cAMP detection kit (PerkinElmer Life Sciences). […] Plates were read using a Mithras LB 940 multimode microplate reader (Berthold Technologies). […] Values were converted to concentration using a cAMP standard curve performed in parallel.
Data analysis for cAMP assays was performed in GraphPad Prism 6.0f (San Diego, CA). Data were fitted to obtain concentration-response curves using either the three-parameter logistic equation (for pEC50 values) or the operational model for partial agonism ([34]) to obtain values of efficacy (log τ) and the equilibrium dissociation constant (log Ka). These values were then used to quantify signaling bias as change in log (τ/Ka) relative to the natural cognate ligand for the respective receptor ([41]). […] Statistical differences were analyzed using one-way ANOVA or Student's t test as appropriate with post hoc Bonferroni's or Dunnett's multiple comparisons, and p < 0.05 was considered significant. […] For RT-PCR, normalization to the internal standard GAPDH was performed to reduce variance and enable a comparison between different cell lines. To quantitate the ligand-dependent response in the yeast system, a strain lacking GPA1 (MMY11), grown in rich medium, was used as a standard ([72]). As GPA1 is not present in this strain, the Gβγ subunits are unregulated and free to signal, allowing us to determine the maximal response of our system. […] For the mammalian cell-based assays, data analysis was carried out as for the yeast curves. […]

T2 sequence (Q16602 23-461): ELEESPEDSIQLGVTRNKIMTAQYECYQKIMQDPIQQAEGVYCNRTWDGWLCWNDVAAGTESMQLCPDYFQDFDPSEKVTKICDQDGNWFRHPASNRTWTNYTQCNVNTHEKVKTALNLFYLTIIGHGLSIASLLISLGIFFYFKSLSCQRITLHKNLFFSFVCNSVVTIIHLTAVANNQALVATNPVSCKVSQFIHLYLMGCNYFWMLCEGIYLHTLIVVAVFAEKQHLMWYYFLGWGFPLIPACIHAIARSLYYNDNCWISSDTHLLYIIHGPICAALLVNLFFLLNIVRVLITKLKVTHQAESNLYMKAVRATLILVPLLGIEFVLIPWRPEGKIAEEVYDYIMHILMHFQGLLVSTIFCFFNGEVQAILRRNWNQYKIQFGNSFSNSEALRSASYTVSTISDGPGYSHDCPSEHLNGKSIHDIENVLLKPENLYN
T2 sequence (O60896 24-148): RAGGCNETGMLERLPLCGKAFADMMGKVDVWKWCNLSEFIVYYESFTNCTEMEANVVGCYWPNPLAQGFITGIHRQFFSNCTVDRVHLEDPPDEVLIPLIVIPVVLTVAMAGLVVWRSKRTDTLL
T1 sequence (Q16602 23-461): as the sequence (Q16602 23-461) above
T1 sequence (O60894 27-148): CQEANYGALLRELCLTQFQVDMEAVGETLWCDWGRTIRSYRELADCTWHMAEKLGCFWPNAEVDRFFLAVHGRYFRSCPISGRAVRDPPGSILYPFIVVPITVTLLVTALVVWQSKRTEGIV

In the case of CC[C@H](C)[C@H](NC(=O)[C@H](CCC(N)=O)NC(=O)[C@H](Cc1c[nH]cn1)NC(=O)[C@H](C)NC(=O)[C@H](CC(C)C)NC(=O)[C@H](CCCCN)NC(=O)[C@H](CCC(N)=O)NC(=O)[C@@H](NC(=O)[C@@H](NC(=O)[C@@H]1CSSC[C@H](NC(=O)CNC(=O)[C@H](Cc2ccccc2)NC(=O)[C@H](CO)NC(=O)[C@H](CCCNC(=N)N)NC(=O)[C@H](CC(C)C)NC(=O)CNC(=O)[C@H](CCC(N)=O)NC(=O)[C@H](Cc2ccccc2)NC(=O)[C@H](CC(N)=O)NC(=O)[C@H](CC(N)=O)NC(=O)[C@H](CCSC)NC(=O)[C@H](CO)NC(=O)[C@H](CCC(N)=O)NC(=O)[C@H](CCCNC(=N)N)NC(=O)[C@@H](N)Cc2ccc(O)cc2)C(=O)N[C@@H](CCCNC(=N)N)C(=O)N[C@@H](Cc2ccccc2)C(=O)NCC(=O)N[C@@H]([C@@H](C)O)C(=O)N1)[C@@H](C)O)C(C)C)C(=O)N[C@@H](Cc1ccc(O)cc1)C(=O)N[C@@H](CCC(N)=O)C(=O)N[C@@H](Cc1ccccc1)C(=O)N[C@H](C(=O)N[C@@H](CC(=O)O)C(=O)N[C@@H](CCCCN)C(=O)N[C@@H](CC(=O)O)C(=O)N[C@@H](CCCCN)C(=O)N[C@@H](CC(=O)O)C(=O)N[C@@H](CC(N)=O)C(=O)N[C@H](C(=O)N[C@@H](C)C(=O)N1CCC[C@H]1C(=O)N[C@@H](CCCNC(=N)N)C(=O)N[C@@H](CO)C(=O)N[C@@H](CCCCN)C(=O)N[C@H](C(=O)N[C@@H](CO)C(=O)N1CCC[C@H]1C(=O)N[C@@H](CCC(N)=O)C(=O)NCC(=O)N[C@@H](Cc1ccc(O)cc1)C(N)=O)[C@@H](C)CC)C(C)C)[C@@H](C)O [AM, adrenomedullin], the Emax [1] is reported as 14.1 ± 1.2%, the Emax (RAMP3-CLR (AM2 receptor); HEK293, PTX treated (200 ng/ml, 16 h), percentage of maximal cAMP with 100 μM forskolin in presence of PTX, n = 7 (Table 3)) is reported as 36 ± 2.2% and the Emax (RAMP3-CLR (AM2 receptor); HEK293, percentage of maximal cAMP with 100 μM forskolin, HEK-293, 30 min, n = 9 (Table 2)) is reported as 32.1 ± 1.6%. For the same compound, the Emax (RAMP3-CLR (AM2 receptor); HEK293, untreated, percentage of maximal cAMP with 100 μM forskolin in presence of PTX, n = 8 (Table 3)) was 32 ± 1.5%.
